From patent US6864286B2, “Inhibitors of the EGF-receptor tyrosine kinase and methods for their use” (Parker Hughes Institute, priority 1998, dated 2005)
“Also recorded” adds a separate entry of the source.

Tests used:
[1] = molecular target: T1, insulin receptor kinase (IRK) (Homo sapiens, UniProt P06213); experiment: Cell-free IRK immune complex kinase assay; type: biochemical; conditions: for effect on enzymatic activity of IRK: at concentrations as high as 350 μM, IRK from HepG2 cells
T1 construct: IRK was immunoprecipitated from the lysates with an anti-IRb antibody; endogenous in cells; host or cells: HepG2 human hepatoma cells (ATCC)
T1 sequence (P06213 763-1382 limits assumed): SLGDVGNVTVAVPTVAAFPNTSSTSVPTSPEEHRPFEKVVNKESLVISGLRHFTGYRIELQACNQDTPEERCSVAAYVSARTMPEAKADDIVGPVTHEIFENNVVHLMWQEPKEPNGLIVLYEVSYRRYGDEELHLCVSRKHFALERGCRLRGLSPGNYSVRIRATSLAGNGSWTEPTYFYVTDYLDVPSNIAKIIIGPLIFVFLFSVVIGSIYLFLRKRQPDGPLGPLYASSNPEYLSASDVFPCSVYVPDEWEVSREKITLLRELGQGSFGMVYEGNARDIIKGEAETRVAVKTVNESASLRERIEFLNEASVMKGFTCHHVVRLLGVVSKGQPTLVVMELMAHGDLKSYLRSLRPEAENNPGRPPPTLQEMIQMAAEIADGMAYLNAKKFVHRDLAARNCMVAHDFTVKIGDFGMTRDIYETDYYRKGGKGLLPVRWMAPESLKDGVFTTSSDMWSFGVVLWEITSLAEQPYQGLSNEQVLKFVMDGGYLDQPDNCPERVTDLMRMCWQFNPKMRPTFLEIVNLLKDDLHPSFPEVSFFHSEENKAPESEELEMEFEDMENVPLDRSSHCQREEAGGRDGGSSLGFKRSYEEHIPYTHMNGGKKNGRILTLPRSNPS
T1 sequence (P06213 28-758 partner limits assumed): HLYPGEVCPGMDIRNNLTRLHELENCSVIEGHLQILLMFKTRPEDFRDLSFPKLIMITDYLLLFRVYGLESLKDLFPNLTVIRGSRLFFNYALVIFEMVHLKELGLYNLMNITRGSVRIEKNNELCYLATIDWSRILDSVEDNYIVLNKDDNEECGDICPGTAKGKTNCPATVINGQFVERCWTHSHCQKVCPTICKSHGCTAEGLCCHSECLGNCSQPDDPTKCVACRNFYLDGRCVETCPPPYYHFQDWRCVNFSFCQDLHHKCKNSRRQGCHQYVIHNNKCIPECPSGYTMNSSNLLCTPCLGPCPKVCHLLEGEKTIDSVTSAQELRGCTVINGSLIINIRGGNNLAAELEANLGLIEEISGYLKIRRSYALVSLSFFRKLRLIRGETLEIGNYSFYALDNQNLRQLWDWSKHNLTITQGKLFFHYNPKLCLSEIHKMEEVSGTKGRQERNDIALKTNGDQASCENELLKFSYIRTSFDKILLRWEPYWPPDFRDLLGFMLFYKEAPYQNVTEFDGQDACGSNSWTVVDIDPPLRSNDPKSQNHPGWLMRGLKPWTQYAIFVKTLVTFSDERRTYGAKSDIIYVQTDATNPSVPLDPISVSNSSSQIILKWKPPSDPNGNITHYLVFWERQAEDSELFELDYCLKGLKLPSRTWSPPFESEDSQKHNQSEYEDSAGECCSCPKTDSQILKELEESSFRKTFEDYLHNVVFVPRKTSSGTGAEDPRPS
Method: Immunoprecipitations, immune-complex protein kinase assays, and immunoblotting using the ECL chemiluminescence detection system (Amersham Life Sciences) were conducted as described previously (Vassilev, A., et al. J. Biol. Chem. 1998, in press; Goodman, P. A., et al. J. Biol. Chem. 1998, 273, 17742; Mahajan, S., et al. Mol. Cell. Biol. 1995, 15, 5304; Uckun, F. M., et al. Science 1996, 22, 1096).
Horse radish peroxidase-conjugated sheep anti-mouse, donkey anti-rabbit secondary antibodies and ECL reagents were purchased from Amersham (Oakbrook, Ill.). For insulin receptor kinase (IRK) assays, HepG2 human hepatoma cells grown to approximately 80% confluency were washed once with serum-free DMEM and starved for 3 hour at 37° in a CO2 incubator. Subsequently, cells were stimulated with insulin (Eli Lilly, cat# CP-410;10 units/ml/10×10^6 cells) for 10 minutes at room temperature. Following this IRK activation step, cells were washed once with serum free medium, lysed in NP-40 buffer and IRK was immunoprecipitated from the lysates with an anti-IRb antibody (Santa Cruz, Cat.# sc-711, polyclonal IgG). Prior to performing the immunecomplex kinase assays, the beads were equilibrated with the kinase buffer (30 mM Hepes pH 7.4, 30 mM NaCl, 8 mM MgCl2, 4 mM MnCl2).

[2] = molecular target: T2, EGFR tyrosine kinase in MDA-MB-231 cells (Homo sapiens, UniProt P00533); experiment: Cellular EGFR autophosphorylation, anti-phosphotyrosine Western blot; type: cell-based; conditions: 24 hour exposure
T2 construct: anti-EGFR immunoprecipitates from lysates of MDA-MB-231 human breast cancer cells; endogenous in cells; host or cells: MDA-MB-231 (ATCC HTB-26)
T2 sequence (P00533 25-1210): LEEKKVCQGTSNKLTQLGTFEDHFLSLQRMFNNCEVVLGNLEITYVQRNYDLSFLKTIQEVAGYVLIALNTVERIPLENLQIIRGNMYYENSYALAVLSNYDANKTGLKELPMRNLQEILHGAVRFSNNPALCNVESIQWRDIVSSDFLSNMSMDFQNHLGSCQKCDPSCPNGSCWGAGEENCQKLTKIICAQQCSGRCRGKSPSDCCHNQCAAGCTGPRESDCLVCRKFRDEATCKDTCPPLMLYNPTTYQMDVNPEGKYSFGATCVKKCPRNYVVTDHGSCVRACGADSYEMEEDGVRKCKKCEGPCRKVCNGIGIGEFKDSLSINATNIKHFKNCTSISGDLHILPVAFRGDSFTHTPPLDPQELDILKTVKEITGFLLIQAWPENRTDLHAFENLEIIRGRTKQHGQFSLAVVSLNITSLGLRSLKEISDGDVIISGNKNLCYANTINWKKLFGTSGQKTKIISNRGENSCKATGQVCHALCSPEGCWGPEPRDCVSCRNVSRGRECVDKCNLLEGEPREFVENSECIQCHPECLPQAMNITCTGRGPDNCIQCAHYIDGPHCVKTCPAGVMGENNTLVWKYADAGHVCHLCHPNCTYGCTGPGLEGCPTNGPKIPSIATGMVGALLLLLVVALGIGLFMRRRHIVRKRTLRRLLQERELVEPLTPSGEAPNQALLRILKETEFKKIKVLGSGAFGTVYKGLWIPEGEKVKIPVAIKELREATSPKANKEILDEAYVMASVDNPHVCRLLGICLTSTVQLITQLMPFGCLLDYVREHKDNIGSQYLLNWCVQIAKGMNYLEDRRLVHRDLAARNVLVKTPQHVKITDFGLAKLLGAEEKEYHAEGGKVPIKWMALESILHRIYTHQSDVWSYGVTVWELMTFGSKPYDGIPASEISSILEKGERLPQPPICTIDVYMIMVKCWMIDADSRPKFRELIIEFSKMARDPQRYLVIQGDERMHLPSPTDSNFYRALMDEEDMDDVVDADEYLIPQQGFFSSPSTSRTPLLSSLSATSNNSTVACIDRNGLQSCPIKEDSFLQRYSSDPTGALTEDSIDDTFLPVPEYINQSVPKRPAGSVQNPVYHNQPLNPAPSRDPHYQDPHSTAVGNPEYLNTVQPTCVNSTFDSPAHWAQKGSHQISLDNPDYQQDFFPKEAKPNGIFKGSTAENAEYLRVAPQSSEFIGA
Method: For EGFR immune complex kinase assays, 24-hours after treatment with leflunomide analogs, MDA-MB-231 breast cancer cells were stimulated with 20 ng/mL EGF for 5 minutes, lysed in 1% Nonidet-P-40 buffer, and cell lysates were immunoprecipitated with an anti-EGFR antibody reactive with the sequence Ala^351-Asp^364 of the human EGFR (Upstate Biotechnology Inc. [UBI] Catalog # 05-104) (Uckun, F. M., et al. Clin. Can. Res. 1998, 4, 901). EGFR immune complexes were examined for tyrosine phosphorylation by Western blot analysis, as described by Uckun, F. M., et al. Clin. Can. Res. 1998, 4, 901. All anti-phosphotyrosine Western blots were subjected to densitometric scanning using the automated AMBIS system (Automated Microbiology System, Inc., San Diego, Calif.) and for each time point a % inhibition value was determined by comparing the density ratios of the tyrosine phosphorylated EGFR protein bands to those of the baseline sample and using the formula: % Inhibition=100−100×[Density of tyrosine phosphorylated EGFR band]test sample/[Density of tyrosine phosphorylated EGFR band]baseline control sample. The IC50 values were determined using an Inplot program (Graphpad Software, Inc., San Diego, Calif.).
The effects of LFM and LFM analogs on the enzymatic activity of the EGFR tyrosine kinase in breast cancer cells were also examined. […]

MDA-MB-231 cells = experiment: Confocal laser scanning microscopy of treated cells; type: cell-based, human; conditions: MDA-MB-231, 100 μM, 24 hours, α-tubulin / TOTO-3 staining
Method: Immunofluorescence was used to examine the morphologic features of breast cancer cells treated with LFM and its analogs. Before the experiment, cells were trypsinized from rapidly growing tissue culture flasks and seeded onto sterile 22 mm^2 coverslips in 6-well culture plates. Cells on coverslips were returned to the incubator for 24 hours prior to treatment. The following day, drugs were added from a stock solution made in DMSO to a final concentration of 100 μM. Final DMSO concentration was 0.1% in both test samples and controls. Cells were returned to a 37° C. incubator for 24 hours before further processing.
At 24 hours, coverslips were fixed in −20° C. methanol for 15 minutes followed by a 15 minute incubation in phosphate buffered saline +0.1% Triton X-100(PBS-Tx). Coverslips were next incubated with a monoclonal antibody against α-tubulin (Sigma Chemical Co, St. Louis, Mo.) at a dilution of 1:1000 for 40 minutes in a humidified chamber at 37° C. Coverslips were washed for 15 minutes in PBS-Tx followed by a 40 min incubation with a goat anti-mouse IgG antibody conjugated to FITC (Amersham Corp., Arlington Heights, Ill.). The coverslips were again rinsed in PBS-Tx and incubated with 5 μM TOTO-3 (Molecular Probes, Eugene Oreg.) for 20 minutes to label the nuclear DNA. […]

Structure (SMILES) | effect on enzymatic activity of IRK [1] | tyrosine phosphorylation of the EGFR after EGF stimulation [2] | morphology and microtubular organization of treated cells (MDA-MB-231 cells) | IC50 ([1]; IRK, cell-free, read-out: Inhibition IC50)
CC(O)=C(C#N)C(=O)Nc1ccc(C(F)(F)F)cc1 [LFM, α-Cyano-β-hydroxy-β-methyl-N-[4-(trifluoromethyl)phenyl]-propenamide, reference compound] | did not affect the enzymatic activity; also recorded: lack of inhibition | to a lesser extent | – | –
C/C(O)=C(\C#N)C(=O)Nc1ccc(OC(F)(F)F)cc1 [LFM-A12, α-Cyano-β-hydroxy-β-methyl-N-[4-(trifluoromethoxy)phenyl]-propenamide] | did not affect the enzymatic activity; also recorded: lack of inhibition | decreased tyrosine phosphorylation of the EGFR | much smaller and had an abnormal shape with large cytoplasmic vacuoles; also recorded: marked shrinkage with disruption of microtubules | > 350 µM
